Source: publication PMC11062899, “De novo development of small cyclic peptides that are orally bioavailable” (Nature Chemical Biology, 2023)
Several values for one entry are separate records, joined by “and”; a condition that tells them apart may be missing. Equal entries are not always repeated.

Key:
[1] = Passive artificial membrane permeability (PAMPA)
human α-thrombin = human α-thrombin (Homo sapiens, UniProt P00734); test: Sub-library screen for active and permeable cyclic peptides (PAMPA plus thrombin inhibition); format: biochemical; conditions: crude, slopes normalized to DMSO; for Residual thrombin activity: Top sample: PAMPA acceptor well after 14 h, 5 μM donor; for Residual thrombin activity: Equilibrated sample: donor sample diluted to theoretical equilibrium (1 μM in assay)
In short: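 Acylated cyclic peptides at 5 μM in PBS pH 7.4 with 5% DMSO were run through PAMPA for 14 h at room temperature. Acceptor wells and a diluted donor sample at 3 μM, representing maximum permeability, were preincubated 10 min with human α-thrombin (6 nM stock). Z-Gly-Gly-Arg-AMC (150 μM stock) fluorescence was then read for 30 min at 25 °C, and inhibition was taken against a no-peptide control.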

SMILES: CC(C)NCC(O)COc1cccc2ccccc12 (stereo not drawn) [Propranolol, reference compound]
- PAMPA permeability: % permeability ([1]; 50 μM, 12–18 h, acceptor concentration relative to equilibrium): 71 ± 9%
- Permeability% Average ([1]; 50 μM, 13 h (Fig. 5d)): 91.0%
- Permeability% (single replicates R1–R3) ([1]; 50 μM, 13 h (Fig. 5d), listed as Probranolol): 87.80% and 90.16% and 95.18%
- Papp at 50 μM ([1]; PAMPA, pH 7.4): 123 nm/s
- Permeability% Average ([1]; top well sample vs theoretical equilibrium sample (TIC), average of R1-R3): 71.1%
- Permeability% ([1]; top well sample vs theoretical equilibrium sample (TIC), single replicates R1-R3, listed as Probranolol): 79.61% and 72.27% and 61.48%

SMILES: O=C1C[C@H]2CCCN2C(=O)[C@H](Cc2ccc(C(F)(F)F)cc2)NC(=O)[C@@H](NC(=O)c2ccc(Cl)s2)CSCc2ccccc2CSCCN1 [C1-X36-L6]
- Residual thrombin activity: Top sample (human α-thrombin): 91.2
- Residual thrombin activity: Equilibrated sample (human α-thrombin): 94.8

SMILES: N#Cc1ccc(C[C@@H]2NC(=O)[C@@H](NC(=O)c3ccc(Cl)s3)CCSCc3cccc(n3)CSCCNC(=O)C[C@H]3CCCN3C2=O)cc1 [C2-X35-L1]
- Residual thrombin activity: Top sample (human α-thrombin): 95.8
- Residual thrombin activity: Equilibrated sample (human α-thrombin): 96.1

SMILES: Cc1cccc(C[C@@H]2NC(=O)[C@@H](NC(=O)c3ccc(Cl)s3)CCSC/C=C/CSCCNC(=O)C[C@H]3CCCN3C2=O)c1 [C2-X37-L4]
- Residual thrombin activity: Top sample (human α-thrombin): 90.6
- Residual thrombin activity: Equilibrated sample (human α-thrombin): 77.5

SMILES: O=C1C[C@H]2CCCN2C(=O)[C@H](Cc2ccc(C(F)(F)F)cc2)NC(=O)[C@@H](NC(=O)c2ccc(Cl)s2)CSCCS(=O)(=O)CCSCCN1 [C1-X36-L2]
- Residual thrombin activity: Top sample (human α-thrombin): 99.0
- Residual thrombin activity: Equilibrated sample (human α-thrombin): 102.5

SMILES: COc1ccc(C[C@@H]2NC(=O)[C@@H](NC(=O)c3ccc(Cl)s3)CCCSCc3ccc(cc3)CSCCNC(=O)C[C@H]3CCCN3C2=O)cc1 [C3-X33-L3]
- Residual thrombin activity: Top sample (human α-thrombin): 102.2
- Residual thrombin activity: Equilibrated sample (human α-thrombin): 103.1

SMILES: CN1C(=O)[C@@H](NC(=O)c2ccc(Cl)s2)CSCCS(=O)(=O)CCSCCNC(=O)C[C@H]2CCCN2C(=O)[C@@H]1Cc1ccccc1 [C1-X32-L2]
- Residual thrombin activity: Top sample (human α-thrombin): 96.4
- Residual thrombin activity: Equilibrated sample (human α-thrombin): 95.3

SMILES: COc1ccc(C[C@@H]2NC(=O)[C@@H](NC(=O)c3ccc(Cl)s3)CCCSC/C=C/CSCCNC(=O)C[C@H]3CCCN3C2=O)cc1 [C3-X33-L4]
- Residual thrombin activity: Top sample (human α-thrombin): 105.1
- Residual thrombin activity: Equilibrated sample (human α-thrombin): 97.8

SMILES: O=C1C[C@H]2CCCN2C(=O)[C@@H](Cc2ccccc2)NC(=O)[C@@H](NC(=O)c2ccc(Cl)s2)CCSCc2cccc(c2)CSCCN1 [C2-X31-L5]
- Residual thrombin activity: Top sample (human α-thrombin): 105.0
- Residual thrombin activity: Equilibrated sample (human α-thrombin): 96.6

SMILES: O=C1C[C@H]2CCCN2C(=O)[C@H](Cc2ccccc2)NC(=O)[C@@H](NC(=O)c2ccc(Cl)s2)CSCc2cccc(c2)CSCCN1 [C1-X5-L5]
- Residual thrombin activity: Top sample (human α-thrombin): 92.1
- Residual thrombin activity: Equilibrated sample (human α-thrombin): 73.3

SMILES: O=C1C[C@H]2CCCN2C(=O)[C@H](Cc2ccc(C(F)(F)F)cc2)NC(=O)[C@@H](NC(=O)c2ccc(Cl)s2)CSCc2cccc(n2)CSCCN1 [C1-X36-L1]
- Residual thrombin activity: Top sample (human α-thrombin): 93.6
- Residual thrombin activity: Equilibrated sample (human α-thrombin): 98.9

SMILES: CN1C(=O)[C@@H](NC(=O)c2ccc(Cl)s2)CCSCc2ccccc2CSCCNC(=O)C[C@H]2CCCN2C(=O)[C@@H]1Cc1ccccc1 [C2-X32-L6]
- Residual thrombin activity: Top sample (human α-thrombin): 94.2
- Residual thrombin activity: Equilibrated sample (human α-thrombin): 95.9

SMILES: COc1ccc(C[C@@H]2NC(=O)[C@@H](NC(=O)c3ccc(Cl)s3)CCSCc3ccccc3CSCCNC(=O)C[C@H]3CCCN3C2=O)cc1 [C2-X33-L6]
- Residual thrombin activity: Top sample (human α-thrombin): 92.7
- Residual thrombin activity: Equilibrated sample (human α-thrombin): 95.5

SMILES: N#Cc1ccc(C[C@@H]2NC(=O)[C@@H](NC(=O)c3ccc(Cl)s3)CSCc3ccc(cc3)CSCCNC(=O)C[C@H]3CCCN3C2=O)cc1 [C1-X35-L3]
- Residual thrombin activity: Top sample (human α-thrombin): 94.1
- Residual thrombin activity: Equilibrated sample (human α-thrombin): 100.0

SMILES: O=C1CSCCNC(=O)C[C@H]2CCCN2C(=O)[C@@H](Cc2ccccc2)NC(=O)[C@@H](NC(=O)c2ccc(Cl)s2)CSC1 [C1-X31-L7]
- Residual thrombin activity: Top sample (human α-thrombin): 96.8
- Residual thrombin activity: Equilibrated sample (human α-thrombin): 96.3

SMILES: Cc1cccc(C[C@@H]2NC(=O)[C@@H](NC(=O)c3ccc(Cl)s3)CCSCc3cccc(n3)CSCCNC(=O)C[C@H]3CCCN3C2=O)c1 [C2-X37-L1]
- Residual thrombin activity: Top sample (human α-thrombin): 88.2
- Residual thrombin activity: Equilibrated sample (human α-thrombin): 83.3

SMILES: O=C1C[C@H]2CCCN2C(=O)[C@H](Cc2ccccc2)NC(=O)[C@@H](NC(=O)c2ccc(Cl)s2)CSCc2cccc(n2)CSCCN1 [C1-X5-L1]
- Residual thrombin activity: Top sample (human α-thrombin): 77.6
- Residual thrombin activity: Equilibrated sample (human α-thrombin): 68.5

SMILES: O=C1C[C@H]2CCCN2C(=O)[C@H](Cc2ccccc2)NC(=O)[C@@H](NC(=O)c2ccc(Cl)s2)CCCSCc2ccccc2CSCCN1 [C3-X5-L6]
- Residual thrombin activity: Top sample (human α-thrombin): 74.4
- Residual thrombin activity: Equilibrated sample (human α-thrombin): 55.6

SMILES: O=C1C[C@H]2CCCN2C(=O)[C@H](Cc2ccc(Cl)cc2)NC(=O)[C@@H](NC(=O)c2ccc(Cl)s2)CSCc2cccc(n2)CSCCN1 [C1-X34-L1]
- Residual thrombin activity: Top sample (human α-thrombin): 93.9
- Residual thrombin activity: Equilibrated sample (human α-thrombin): 92.0

SMILES: O=C1C[C@H]2CCCN2C(=O)[C@@H](Cc2ccccc2)NC(=O)[C@@H](NC(=O)c2ccc(Cl)s2)CSC/C=C/CSCCN1 [C1-X31-L4]
- Residual thrombin activity: Top sample (human α-thrombin): 96.8
- Residual thrombin activity: Equilibrated sample (human α-thrombin): 93.6

SMILES: O=C1C[C@H]2CCCN2C(=O)[C@@H](Cc2ccccc2)NC(=O)[C@@H](NC(=O)c2ccc(Cl)s2)CCSC/C=C/CSCCN1 [C2-X31-L4]
- Residual thrombin activity: Top sample (human α-thrombin): 98.4
- Residual thrombin activity: Equilibrated sample (human α-thrombin): 104.3

SMILES: O=C1C[C@H]2CCCN2C(=O)[C@H](Cc2ccccc2)NC(=O)[C@@H](NC(=O)c2ccc(Cl)s2)CSCCS(=O)(=O)CCSCCN1 [C1-X5-L2]
- Residual thrombin activity: Top sample (human α-thrombin): 88.1
- Residual thrombin activity: Equilibrated sample (human α-thrombin): 37.4
